Patent US20090012118A1, “Kynurenic Acid Amide Derivatives as Nr2b Receptor Antagoni” (priority 2004, published 2009)
Where two headings read alike, the source gives them in different places.

Experiments:
[1] = biological target: T1, NR1a/NR2B NMDA receptor (Rattus norvegicus, UniProt P35439+Q00960); assay: Functional NMDA antagonism, fluorimetric intracellular calcium measurement on HEK293 cells expressing NR1a/NR2B; format: cell-based
T1 construct: expressed in transfected cells
Experimental: (§1) Compounds were tested for their inhibitory action on NMDA evoked cytosolic calcium elevations in fluorescent calcium measurements. Studies were performed 48-72 h after addition of the inducing agent. Ketamine (500 μM) was also present during the induction in order to prevent cytotoxicity.
Since NMDA receptors are known to be permeable to calcium ions upon excitation, the extent of NMDA receptor activation, and its inhibition by functional antagonists can be characterized by measuring the rise in the intracellular calcium concentration following agonist (NMDA) application onto the cells.
The intracellular calcium measurements are carried out on HEK293 cells expressing NR1a and NR2B or NR2A NMDA receptor subunits.
(§2) Loading is stopped by washing twice with the solution used also during the measurement (140 mM NaCl, 5 mM KCl, 2 mM CaCl2, 5 mM HEPES [4-(2-hydroxyethyl)-1-piperazineethane-sulfonic acid], 5 mM HEPES-Na, 20 mM glucose, 10 μM glycine, pH=7.4). Then the test compound dissolved in the above solution (90 μl/well) is added. Intracellular calcium measurements are carried out with a plate reader fluorimeter. A rise in Fluo-4-fluorescence that reflects the intracellular calcium concentration is induced by application of 200 μM NMDA. Inhibitory potency of the test compound is assessed by measuring the reduction in the calcium elevation in the presence of different concentrations of the compound.
(§3) Inhibitory potency of a compound at a single concentration point is expressed as percent inhibition of the control NMDA response. For NR1a/NR2B expressing cells concentration-inhibition curves are produced. Sigmoidal concentration-inhibition curves are fitted over the data and IC50 values are defined as the concentration that produces half of the maximal inhibition that could be achieved with the compound. Mean IC50 values are derived from at least three independent experiments. For NR1-3/NR2A expressing cells antagonism of NMDA induced rise in intracellular calcium concentration by compounds of the present invention and reference compounds was tested at 10 and 15 microM concentration, respectively.

[2] = tested on: NMRI mice; assay: Mouse formalin test (second phase, licking/biting time); format: in vivo; details: 15 min before formalin, licking time 20-25 min after formalin; for ED50: Mus musculus, po; for ED50 in mouse formalin test: p.o.
Experimental: Injection of diluted formalin into the hind paw of rats or mice is known to elicit a biphasic pain-related behavior measured as time spent by licking/biting of the injured paw. The second phase is generally defined as pain related events detected in the 15-60 min. time interval after formalin injection. It is known that NMDA receptors are involved in the second phase of response to formalin injection and this behavioral response is sensitive to blockade of NMDA receptors [Dickenson, A. and Besson J.-M. (Editors): Chapter 1, pp. 6-7: Animal models of Analgesia; and Chapter 8, pp. 180-183: Mechanism of Central Hypersensitivity: Excitatory Amino Acid Mechanisms and Their Control—In Pharmacology of Pain. Springer-Verlag (Berlin) 1997.] Therefore, we used the second phase of formalin test to characterize the efficacy of compounds in vivo. Inhibition of the second phase of response is considered to indicate an analgesic effect against chemically-induced persistent pain [Hunskaar, S., et al.: Formalin Test in Mice, a Useful Technique for Evaluating Mild Analgesics, Journal of Neuroscience Methods, 14 (1985) 69-76.]
Male albino NMRI mice (20-25 g) were used. Prior to the experiment any solid food was withdrawn for approx. 16 hours but the animals had free access to 20% glucose solution. The animals were allowed 1 hour acclimatization period in a glass cylinder (cc. 15 cm in diameter), then moved to an identical cylinder with a mirror placed behind to facilitate observation. The test substances were suspended in 5% tween-80 (10 ml per kg body weight). and administered orally by gavage 15 min before the formalin injection (20 μl of 1% formalin in 0.9% saline injected subcutaneously into the dorsal surface of the right hind paw). The time spent by licking and biting of the injected paw was measured from 20 to 25 min. after the formalin injection.

[3] = biological target: T2, NR1-3/NR2A NMDA receptor (Homo sapiens, UniProt Q05586+Q12879); assay: Functional NMDA antagonism, fluorimetric intracellular calcium measurement on HEK293 cells expressing NR1-3/NR2A; format: cell-based; set-up: NR1-3/NR2A % inhibition: dose or concentration left out as unconfirmed; details: for inhibition at 15 µM: NMDA evoked calcium rise; for inhibition at 10 µM: reference compounds
T2 construct: expressed in transfected cells
Experimental: as §1, with “(2003)]. […] Compounds” for “Compounds”
(§4) Since NMDA receptors are known to be permeable to calcium ions upon excitation, the extent of NMDA receptor activation, and its inhibition by functional antagonists can be characterized by measuring the rise in the intracellular calcium concentration following agonist (NMDA) application onto the cells. Since there is very high sequence homology between rat and human NMDA receptors (99, 95, 97% for NR1, NR2A, and NR2B subunits, respectively), it is believed that there is little, if any, difference in their pharmacological sensitivity.
(§5) The intracellular calcium measurements are carried out on HEK293 cells expressing NR1a and NR2B or NR2A NMDA receptor subunits. The cells are plated onto standard 96-well microplates and the cultures are maintained in an atmosphere of 95% air −5% CO2 at 37° C. until testing.
as §2, with “The cells are loaded with a fluorescent Ca^2+-sensitive dye, Fluo-4/AM (2-2.5 μM) prior to testing. Loading” for “Loading”
as §3

[4] = biological target: T3, NR1-3/NR2A NMDA receptor (Homo sapiens, UniProt Q12879); assay: as above; format: cell-based; set-up: NR1-3/NR2A % inhibition: dose or concentration left out as unconfirmed; details: reference compounds
T3 construct: expressed in transfected cells
Experimental: as §1, with “(2003)]. […] Compounds” for “Compounds”
as §4, §5
as §2, with “The cells are loaded with a fluorescent Ca^2+-sensitive dye, Fluo-4/AM (2-2.5 μM) prior to testing. Loading” for “Loading”
as §3

[5] = tested on: NMRI mice; assay: Mouse formalin test (second phase, licking/biting time); format: in vivo
[6] = HEK293 cells expressing NR1a/NR2B, 200 μM NMDA evoked calcium rise, compounds of the invention, read-out: NR1a/NR2B IC50
[7] = HEK293 cells expressing NR1a/NR2B, reference compounds, read-out: NR1a/NR2B IC50

T2 sequence (Q12879 23-1464, other chains not shown): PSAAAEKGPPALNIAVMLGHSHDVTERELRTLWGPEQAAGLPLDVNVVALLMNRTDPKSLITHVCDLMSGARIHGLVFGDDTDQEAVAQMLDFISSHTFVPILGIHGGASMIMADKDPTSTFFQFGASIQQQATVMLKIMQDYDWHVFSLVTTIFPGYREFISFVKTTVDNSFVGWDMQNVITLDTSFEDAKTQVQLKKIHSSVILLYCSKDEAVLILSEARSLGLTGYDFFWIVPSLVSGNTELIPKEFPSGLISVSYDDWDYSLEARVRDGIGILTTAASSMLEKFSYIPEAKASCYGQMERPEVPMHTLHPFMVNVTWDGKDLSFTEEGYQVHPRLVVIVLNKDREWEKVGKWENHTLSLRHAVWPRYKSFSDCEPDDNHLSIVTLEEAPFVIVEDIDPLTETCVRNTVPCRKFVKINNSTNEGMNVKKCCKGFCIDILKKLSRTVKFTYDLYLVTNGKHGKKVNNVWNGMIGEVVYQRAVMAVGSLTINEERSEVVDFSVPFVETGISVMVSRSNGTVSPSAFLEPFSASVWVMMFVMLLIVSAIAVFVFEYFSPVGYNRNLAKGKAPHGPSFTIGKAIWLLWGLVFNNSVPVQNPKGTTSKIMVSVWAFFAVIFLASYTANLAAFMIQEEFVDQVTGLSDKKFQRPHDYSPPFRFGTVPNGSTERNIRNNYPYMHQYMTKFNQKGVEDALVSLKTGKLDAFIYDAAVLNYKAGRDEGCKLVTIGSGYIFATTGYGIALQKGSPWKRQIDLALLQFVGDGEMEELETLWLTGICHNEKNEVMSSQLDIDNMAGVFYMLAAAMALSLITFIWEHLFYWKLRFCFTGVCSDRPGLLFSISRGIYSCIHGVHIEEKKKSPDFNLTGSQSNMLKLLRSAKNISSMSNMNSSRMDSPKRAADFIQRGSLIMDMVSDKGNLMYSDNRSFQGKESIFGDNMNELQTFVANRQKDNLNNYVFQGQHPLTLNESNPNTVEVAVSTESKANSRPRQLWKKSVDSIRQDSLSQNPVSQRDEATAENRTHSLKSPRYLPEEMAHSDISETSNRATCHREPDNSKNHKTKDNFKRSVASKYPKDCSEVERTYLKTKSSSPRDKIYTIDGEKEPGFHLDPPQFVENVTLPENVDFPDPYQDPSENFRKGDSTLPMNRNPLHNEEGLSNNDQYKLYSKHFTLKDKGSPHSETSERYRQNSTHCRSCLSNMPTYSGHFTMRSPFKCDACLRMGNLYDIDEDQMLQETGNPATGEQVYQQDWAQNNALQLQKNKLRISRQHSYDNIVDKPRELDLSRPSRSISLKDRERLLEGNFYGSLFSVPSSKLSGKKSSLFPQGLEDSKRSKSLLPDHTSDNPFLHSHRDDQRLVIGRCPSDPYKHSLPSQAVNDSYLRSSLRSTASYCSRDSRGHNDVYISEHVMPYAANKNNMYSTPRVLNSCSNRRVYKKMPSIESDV
T1 sequence (Q00960 27-1482, other chains not shown): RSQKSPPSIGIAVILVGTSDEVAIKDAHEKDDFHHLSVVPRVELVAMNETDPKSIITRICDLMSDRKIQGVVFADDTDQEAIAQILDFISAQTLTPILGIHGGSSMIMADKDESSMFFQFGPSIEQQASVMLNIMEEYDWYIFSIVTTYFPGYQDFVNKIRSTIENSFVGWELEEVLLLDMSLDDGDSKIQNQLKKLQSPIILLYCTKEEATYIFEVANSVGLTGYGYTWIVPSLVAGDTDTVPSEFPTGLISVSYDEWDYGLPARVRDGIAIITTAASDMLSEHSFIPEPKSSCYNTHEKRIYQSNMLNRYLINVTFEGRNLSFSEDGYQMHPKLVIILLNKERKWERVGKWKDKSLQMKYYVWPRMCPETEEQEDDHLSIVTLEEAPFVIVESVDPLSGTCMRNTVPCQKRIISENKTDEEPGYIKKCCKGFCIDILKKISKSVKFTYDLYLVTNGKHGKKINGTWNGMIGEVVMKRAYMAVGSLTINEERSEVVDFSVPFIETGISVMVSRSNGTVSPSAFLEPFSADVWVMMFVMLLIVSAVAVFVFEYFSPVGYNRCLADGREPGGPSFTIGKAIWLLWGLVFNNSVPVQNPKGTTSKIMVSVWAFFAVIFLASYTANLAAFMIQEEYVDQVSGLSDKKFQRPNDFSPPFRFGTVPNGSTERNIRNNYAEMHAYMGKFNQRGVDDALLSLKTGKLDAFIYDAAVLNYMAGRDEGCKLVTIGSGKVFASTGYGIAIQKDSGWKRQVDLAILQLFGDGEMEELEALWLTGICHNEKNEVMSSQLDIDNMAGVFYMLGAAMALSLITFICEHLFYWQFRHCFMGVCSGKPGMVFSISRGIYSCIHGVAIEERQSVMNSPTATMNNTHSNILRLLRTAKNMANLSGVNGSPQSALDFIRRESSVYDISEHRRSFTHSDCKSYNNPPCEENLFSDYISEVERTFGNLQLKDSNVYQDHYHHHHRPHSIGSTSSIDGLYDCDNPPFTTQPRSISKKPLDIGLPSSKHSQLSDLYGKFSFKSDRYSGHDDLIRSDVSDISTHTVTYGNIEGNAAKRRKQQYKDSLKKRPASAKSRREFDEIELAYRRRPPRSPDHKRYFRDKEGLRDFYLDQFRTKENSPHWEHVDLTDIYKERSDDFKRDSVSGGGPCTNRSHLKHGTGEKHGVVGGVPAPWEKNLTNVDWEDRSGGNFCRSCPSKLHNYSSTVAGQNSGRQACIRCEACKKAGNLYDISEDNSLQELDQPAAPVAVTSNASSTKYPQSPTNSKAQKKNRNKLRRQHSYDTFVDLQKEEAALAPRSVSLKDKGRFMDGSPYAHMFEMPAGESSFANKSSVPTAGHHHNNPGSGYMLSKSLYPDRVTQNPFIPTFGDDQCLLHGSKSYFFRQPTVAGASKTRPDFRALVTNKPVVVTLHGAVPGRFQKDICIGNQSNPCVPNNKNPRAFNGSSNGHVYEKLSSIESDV
T3 sequence (Q12879 23-1464, other chains not shown): as the sequence (Q12879 23-1464, other chains not shown) above

## O=C(c1cc(=O)c2cc(O)ccc2[nH]1)N1CCC(Cc2ccc(F)cc2)CC1 [Example 1, 2-[4-(4-Fluoro-benzyl)-piperidine-1-carbonyl]-6-hydroxy-1H-quinolin-4-one]
[1]; [6]
  IC50: 4 nM
[2]
  ED50: 9.5 mg/kg
[3]
  inhibition at 15 µM: -0.9%

## Cc1ccc(OC2CCN(C(=O)c3cc(=O)c4cc(O)ccc4[nH]3)CC2)cc1 [Example 8, 6-Hydroxy-2-(4-p-tolyloxy-piperidine-1-carbonyl)-1H-quinolin4-one]
[1]; [6]
  IC50: 3.3 nM
[2]
  ED50: 8.2 mg/kg
[3]
  inhibition at 15 µM: -3.5%

## O=C(CCN1CCC(Cc2ccc(F)cc2)CC1)c1ccc2[nH]c(=O)oc2c1 [EMD 95885, reference compound]
[1]; [7]
  IC50: 48 nM
[2]
  ED50 in mouse formalin test: 3.7 mg/kg
[4]
  NR1-3/NR2A % inhibition: 0.1%

## O=C(c1cc(=O)c2cc(O)ccc2[nH]1)N1CCC(Cc2ccccc2)CC1 [Example 2, 2-(4-Benzyl-piperidine-1-carbonyl)-6-hydroxy-1H-quinolin-4-one]
[1]; [6]
  IC50: 3.7 nM
[2]
  ED50: > 20 mg/kg
[3]
  inhibition at 15 µM: 7%

## Cc1ccc(CC2(O)CCN(CCOc3ccc(O)cc3)CC2)cc1 [Co-101244, 1-[2-(4-hydroxyphenoxy)ethyl]-4-hydroxy-4-(4-methylbenzyl)piperidine, reference compound]
[1]; [7]
  IC50: 4.8 nM
[2]
  ED50 in mouse formalin test: inactive
[5]; ip
  ED50: 5.9 mg/kg
[3]
  inhibition at 10 µM: -8.7%

## O=C(c1cc(=O)c2cc3[nH]c(=O)oc3cc2[nH]1)N1CCC(Cc2ccccc2)CC1 [Example 9, 6-(4-Benzyl-piperidine-1-carbonyl)-1,5-dihydro-oxazolo[4,5-g]quinoline-2,8-dione]
[1]; [6]
  IC50: 5.6 nM
[2]
  ED50: > 20 mg/kg
[3]
  inhibition at 15 µM: -2.1%

## CC(C(O)c1ccc(O)cc1)N1CCC(Cc2ccccc2)CC1 (stereo not drawn) [ifenprodil, erythro-2-(4-benzylpiperidino)-1-(4-hydroxyphenyl)-1-propanol, reference compound]
[3]
  inhibition at 10 µM: -2.7%

## O=C(c1cc(=O)c2cc(O)ccc2[nH]1)N1CCC(Cc2ccc(Cl)cc2)CC1 [Example 4, 2-[4-(4-Chloro-benzyl)-piperidine-1-carbonyl]-6-hydroxy-1H-quinolin-4-one]
[1]; [6]
  IC50: 1.9 nM
[2]
  ED50: > 20 mg/kg
[3]
  inhibition at 15 µM: -5.1%

## O=C(c1cc(=O)c2cc(O)ccc2[nH]1)N1CCC(OCc2ccccc2)CC1 [Example 5, 2-(4-Benzyloxy-piperidine-1-carbonyl)-6-hydroxy-1H-quinolin-4-one]
[1]; [6]
  IC50: 21.5 nM
[3]
  inhibition at 15 µM: 5.7%

## C[C@@H]([C@@H](O)c1ccc(O)cc1)N1CCC(O)(c2ccccc2)CC1 [CP 101,606, (1S,2S)-1-(4-hydroxyphenyl)-2-(4-hydroxy-4-phenylpiperidine-1-yl)-1-propanol, reference compound]
[2]
  ED50: > 20 mg/kg
[5]; sc
  ED50: > 20 mg/kg
[3]
  inhibition at 10 µM: 2.5%

## Cc1ccc(CC2CCN(C(=O)c3cc(=O)c4cc(O)ccc4[nH]3)CC2)cc1 [Example 3, 6-Hydroxy-2-[4-(4-methyl-benzyl)-piperidine-1-carbonyl]-1H-quinolin-4-one]
[1]; [6]
  IC50: 3.8 nM
[2]
  ED50: 8.9 mg/kg
[3]
  inhibition at 15 µM: -2.4%

## CC(CN1CCC(Cc2ccccc2)CC1)C(O)c1ccc(O)cc1 (stereo not drawn) [Ro 25.6981, R—(R*,S*)-1-(4-hydroxyphenyl)-2-methyl-3-[4-(phenylmethyl)piperidin-1-yl]-1-propanol, reference compound]
[1]
  IC50: 57 nM
[2]
  ED50 in mouse formalin test: inactive
[5]; ip
  ED50: 5.1 mg/kg
[3]
  inhibition at 10 µM: 1%

## Oc1ccc(OCCN2CCC(Cc3ccc(F)cc3)CC2)cc1 [Co-111103, 1-[2-(4-hydroxyphenoxy)ethyl]-4-(4-fluorobenzyl)piperidine, reference compound]
[2]
  ED50: > 20 mg/kg

## O=c1[nH]c2ccc([S+]([O-])CCN3CCC(Cc4ccc(F)cc4)CC3)cc2o1 (centres unmarked) [CI-1041, 6-{2-[4-(4-fluoro-benzyl)-piperidin-1-yl]-ethanesulfinyl}-3H-benzooxazol-2-one, reference compound]
[1]
  IC50: 8.4 nM
[2]
  ED50: 2.4 mg/kg
[3]
  inhibition at 10 µM: 21%

## O=C(c1cc(=O)c2cc(O)ccc2[nH]1)N1CCC(Oc2ccccc2)CC1 [Example 10, 6-Hydroxy-2-(4-phenoxy-piperidine-1-carbonyl)-1H-quinolin-4-one]
[1]; [6]
  IC50: 28 nM
[3]
  inhibition at 15 µM: 0.2%

## O=C(c1cc(=O)c2cc(O)ccc2[nH]1)N1CCC(COc2ccccc2)CC1 [Example 6, 6-Hydroxy-2-(4-Phenoxymethyl-piperidine-1-carbonyl)-1H-quinolin-4-one]
[1]; [6]
  IC50: 8.9 nM
[2]
  ED50: 0.46 mg/kg
[3]
  inhibition at 15 µM: 14%

## O=C(c1cc(=O)c2cc(O)ccc2[nH]1)N1CCC(Oc2ccc(Cl)cc2)CC1 [Example 7]
[1]; [6]
  IC50: 5.1 nM
[2]
  ED50: > 20 mg/kg
[3]
  inhibition at 15 µM: 5.1%
